Where a name gives a salt, the structure may show the parent alone. Read-outs that look alike come from different tables or passages of the source.
Biological target: SARS-CoV-2 3CLpro (Severe acute respiratory syndrome coronavirus 2, UniProt P0DTD1)
Test: biochemical
Type: biochemical
Parameters: Replicate_1 / Replicate_2 / mean / mean (LOPAC_screen_w_protease): unit not given here
Conditions: for inhibition at 5 µM: 4 h; for mean (LOPAC screen with protease) / Replicate_1 (LOPAC screen with protease) / Replicate_2 (LOPAC screen with protease): primary screen at 5 µM
[1] = sheet LOPAC_screen_w_protease, LOPAC1280 primary screen with protease, 5 µM compound, mean of the two replicates
[2] = sheet LOPAC_screen_w_protease, LOPAC1280 primary screen with protease, 5 µM compound, replicate 1
[3] = sheet LOPAC_screen_w_protease, LOPAC1280 primary screen with protease, 5 µM compound, replicate 2
[4] = sheet LOPAC_screen_w_protease, LOPAC1280 primary screen with protease, 5 µM compound, mean of the two replicates, read-out: mean
[5] = sheet LOPAC_screen_w_protease, LOPAC1280 primary screen with protease, 5 µM compound, replicate 1, read-out: Replicate_1
[6] = sheet LOPAC_screen_w_protease, LOPAC1280 primary screen with protease, 5 µM compound, replicate 2, read-out: Replicate_2
[7] = LOPAC1280 primary screen with protease, 5 µM compound, mean of the two replicates
[8] = LOPAC1280 primary screen with protease, 5 µM compound, replicate 1
[9] = LOPAC1280 primary screen with protease, 5 µM compound, replicate 2
[10] = sheet LOPAC_screen_w_protease, primary screen of LOPAC1280 at 5 µM with protease, mean of the two replicates
[11] = sheet LOPAC_screen_w_protease, primary screen of LOPAC1280 at 5 µM with protease, replicate 1
[12] = sheet LOPAC_screen_w_protease, primary screen of LOPAC1280 at 5 µM with protease, replicate 2
[13] = LOPAC1280 primary screen with protease, 5 µM compound, mean of two replicates
[14] = sheet LOPAC_screen_w_protease, LOPAC1280 at 5 µM, mean of two replicates
[15] = sheet LOPAC_screen_w_protease, LOPAC1280 at 5 µM, replicate 1
[16] = sheet LOPAC_screen_w_protease, LOPAC1280 at 5 µM, replicate 2
[17] = LOPAC1280 primary screen with protease, 5 µM compound, replicate 1, read-out: Replicate_1 (LOPAC_screen_w_protease)
[18] = LOPAC1280 primary screen with protease, 5 µM compound, replicate 2, read-out: Replicate_2 (LOPAC_screen_w_protease)
[19] = sheet LOPAC_screen_w_protease, mean of two replicates
[20] = sheet LOPAC_screen_w_protease, replicate 1
[21] = sheet LOPAC_screen_w_protease, replicate 2
[22] = sheet LOPAC_screen_w_protease, primary screen with protease, compound at 5 µM, mean of two replicates, read-out: mean
[23] = sheet LOPAC_screen_w_protease, primary screen with protease, compound at 5 µM, replicate 1, read-out: Replicate_1
[24] = sheet LOPAC_screen_w_protease, primary screen with protease, compound at 5 µM, replicate 2, read-out: Replicate_2
[25] = sheet LOPAC_screen_w_protease, primary screen with protease, 5 µM, replicate 1, read-out: Replicate_1
[26] = sheet LOPAC_screen_w_protease, primary screen with protease, 5 µM, replicate 2, read-out: Replicate_2

O=[N+]([O-])c1ccc(CSc2ncnc3c2ncn3[C@@H]2O[C@H](CO)[C@@H](O)[C@H]2O)cc1 [S-(4-Nitrobenzyl)-6-thioinosine] was tested, and the mean [1] was 4.84, the Replicate_1 [2] was 5.452 and the Replicate_2 [3] was 4.228.

In the case of O=C1N(c2ccccc2)c2ccccc2C1(Cc1ccncc1)Cc1ccncc1 [Linopirdine], the inhibition at 5 µM [4] is reported as 4.8%, the inhibition at 5 µM [5] is reported as 4.31% and the inhibition at 5 µM [6] is reported as 5.29%.

NCCCNCCCCNCCCN [Spermine tetrahydrochloride] was tested, and the inhibition at 5 µM (read-out: Replicate_1) was 3.94%, the inhibition at 5 µM (read-out: Replicate_2) was 4.24% and the inhibition at 5 µM (read-out: mean) was 4.09%.

In the case of CCc1cc(Cl)c(O)c(C(=O)NC[C@@H]2CCCN2CC)c1OC.Cl [S-(-)-Eticlopride hydrochloride], the “mean (LOPAC_screen_w_protease)” value [7] is reported as 2.005, the “Replicate_1 (LOPAC_screen_w_protease)” value [8] is reported as 2.376 and the “Replicate_2 (LOPAC_screen_w_protease)” value [9] is reported as 1.635.

Molecule N/C(=N\C(=O)c1nc(Cl)c(N)nc1N)NCc1ccc(Cl)c(Cl)c1 [3',4'-Dichlorobenzamil] has a mean [10] of 4.038, a Replicate_1 [11] of 5.158 and a Replicate_2 [12] of 2.918.

Molecule COc1ccc2[nH]c(I)c(CCNC(C)=O)c2c1 [2-Iodomelatonin] has a mean [1] of 5.613, a Replicate_1 [2] of 6.946 and a Replicate_2 [3] of 4.28.

With CCC(=O)N1CCN(C(=O)c2ccccc2)CC1 [DM 235] the “mean (LOPAC_screen_w_protease)” value [13] was 1.365, the “Replicate_1 (LOPAC_screen_w_protease)” value [8] was 0.6823 and the “Replicate_2 (LOPAC_screen_w_protease)” value [9] was 2.048.

COC(=O)[C@H](NC(=O)c1cc(-c2ccccc2)nc2ccccc12)c1ccccc1 [SB 218795] gave a mean (sheet LOPAC_screen_w_protease, LOPAC1280 primary screen at 5 µM, with protease, mean of the two replicates) of 0.7338, a Replicate_1 (sheet LOPAC_screen_w_protease, LOPAC1280 primary screen at 5 µM, with protease, replicate 1) of 2.781 and a Replicate_2 (sheet LOPAC_screen_w_protease, LOPAC1280 primary screen at 5 µM, with protease, replicate 2) of -1.313.

With CC(C)NCC(O)c1ccc(NS(C)(=O)=O)cc1.Cl (racemic) [(±)-Sotalol hydrochloride] the “mean (LOPAC_screen_w_protease)” value [13] was 1.4398, the “Replicate_1 (LOPAC_screen_w_protease)” value [8] was 1.054 and the “Replicate_2 (LOPAC_screen_w_protease)” value [9] was 1.826.

Work on CNc1cc(NS(=O)(=O)c2ccc(N)cc2)nc(NC)n1.Cl.Cl [Ro 04-6790 dihydrochloride] yielded a mean [14] of 0.9819, a Replicate_1 [15] of -0.4861 and a Replicate_2 [16] of 2.45.

Oc1c2ccccc2c2c3c(cccc13)N=N2 [SP600125] was tested, and the inhibition at 5 µM (sheet LOPAC_screen_w_protease, LOPAC1280 primary screen at 5 µM, with protease, mean of two replicates, read-out: mean) was -1.9%, the inhibition at 5 µM (sheet LOPAC_screen_w_protease, LOPAC1280 primary screen at 5 µM, with protease, replicate 1, read-out: Replicate_1) was 0.641% and the inhibition at 5 µM (sheet LOPAC_screen_w_protease, LOPAC1280 primary screen at 5 µM, with protease, replicate 2, read-out: Replicate_2) was -4.45%.

CCN(CC)CCOC(=O)c1ccc(N)cc1 [Procaine hydrochloride] was tested, and the inhibition at 5 µM [17] was 1.06%, the inhibition at 5 µM [18] was 1.81% and the “mean (LOPAC_screen_w_protease)” value [13] was 1.433.

Molecule C[C@](N)(Cc1ccc(O)cc1)C(=O)O [L-alpha-Methyl-p-tyrosine] has a mean [1] of 4.979, a Replicate_1 [2] of 5.136 and a Replicate_2 [3] of 4.822.

For CCCN(CCC)CCc1ccc(O)c(O)c1 [Dipropyldopamine hydrobromide], the inhibition at 5 µM [17] was 3.8%, the inhibition at 5 µM [18] was 0.246% and the “mean (LOPAC_screen_w_protease)” value [7] was 2.021.

For C[N+](C)(C)CCC(=O)c1cccc2ccccc12.[I-], the “mean (LOPAC screen with protease)” value [19] was 102.503, the “Replicate_1 (LOPAC screen with protease)” value [20] was 102.129 and the “Replicate_2 (LOPAC screen with protease)” value [21] was 102.878.

With C=CCn1c(=O)c2c(nc(-c3ccc(S(=O)(=O)O)cc3)n2C)n(C)c1=O the “mean (LOPAC_screen_w_protease)” value [13] was 1.718, the “Replicate_1 (LOPAC_screen_w_protease)” value [8] was 2.434 and the “Replicate_2 (LOPAC_screen_w_protease)” value [9] was 1.002.

Molecule Cl.NCC(O)C1CCCCCCC1 (centres unmarked) has a mean [14] of 1.1388, a Replicate_1 [15] of 2.0547 and a Replicate_2 [16] of 0.2229.

In the case of COC(=O)C1=C(C)NC(C)=C(C(=O)OCCN(C)Cc2ccccc2)C1c1cccc([N+](=O)[O-])c1 (centres unmarked) [Nicardipine hydrochloride], the inhibition at 5 µM [22] is reported as 2.73%, the inhibition at 5 µM [23] is reported as 2.03% and the inhibition at 5 µM [24] is reported as 3.42%.

With Br.CN1CCc2cc(O)c(O)cc2C(c2ccccc2)C1 (centres unmarked) [SKF 75670 hydrobromide] the “mean (LOPAC screen with protease)” value [19] was 25.5455, the “Replicate_1 (LOPAC screen with protease)” value [20] was 25.015 and the “Replicate_2 (LOPAC screen with protease)” value [21] was 26.0759.

NS(=O)(=O)c1cc2c(cc1Cl)NC(C1CC3C=CC1C3)NS2(=O)=O (centres unmarked) [Cyclothiazide] gave an inhibition at 5 µM [22] of 2.93%, an inhibition at 5 µM [23] of 4.25% and an inhibition at 5 µM [24] of 1.61%.

Molecule CC(=O)Nc1nnc(S(N)(=O)=O)s1 [Acetazolamide] has an inhibition at 5 µM [25] of 0.216% and an inhibition at 5 µM [26] of -0.714%.

c1ccc(C2CN3CCSC3=N2)cc1 (centres unmarked) [Tetramisole hydrochloride] showed an inhibition at 5 µM (read-out: Replicate_1) of 1.43%, an inhibition at 5 µM (read-out: Replicate_2) of -2.01% and an inhibition at 5 µM (read-out: mean) of -0.287%.

N[C@@H](Cc1ccc(F)cc1)C(=O)O [p-Fluoro-L-phenylalanine] was tested, and the “mean (LOPAC_screen_w_protease)” value [7] was 2.051, the “Replicate_1 (LOPAC_screen_w_protease)” value [8] was 4.147 and the “Replicate_2 (LOPAC_screen_w_protease)” value [9] was -0.04537.

For Nc1nnc(-c2cccc(Cl)c2Cl)c(N)n1 [Lamotrigine], the inhibition at 5 µM [17] was 1.42%, the inhibition at 5 µM [18] was 1.78% and the “mean (LOPAC_screen_w_protease)” value [13] was 1.603.

Work on Cc1ccc(=O)n(-c2ccccc2)c1 [Pirfenidone] yielded an inhibition at 5 µM (sheet LOPAC_screen_w_protease, primary screen of LOPAC1280 at 5 µM with protease, mean of the two replicates, read-out: mean) of 4.02%, an inhibition at 5 µM (sheet LOPAC_screen_w_protease, primary screen of LOPAC1280 at 5 µM with protease, replicate 1, read-out: Replicate_1) of 2.71% and an inhibition at 5 µM (sheet LOPAC_screen_w_protease, primary screen of LOPAC1280 at 5 µM with protease, replicate 2, read-out: Replicate_2) of 5.33%.

With N#CC(=Cc1ccc(O)c(O)c1)C(=O)NCCc1ccccc1 [Tyrphostin AG 698] the mean (sheet LOPAC_screen_w_protease, primary screen with protease, compound at 5 µM, mean of two replicates) was 2.9723, the Replicate_1 (sheet LOPAC_screen_w_protease, primary screen with protease, compound at 5 µM, replicate 1) was 3.137 and the Replicate_2 (sheet LOPAC_screen_w_protease, primary screen with protease, compound at 5 µM, replicate 2) was 2.808.

N=C(N)NC(=O)c1nc(Cl)c(N2CCCCCC2)nc1N [5-(N,N-hexamethylene)amiloride] was tested, and the mean (sheet LOPAC_screen_w_protease, primary screen with protease, mean of two replicates) was 2.452, the Replicate_1 (sheet LOPAC_screen_w_protease, primary screen with protease, replicate 1) was 2.2643 and the Replicate_2 (sheet LOPAC_screen_w_protease, primary screen with protease, replicate 2) was 2.64.

With CC[C@@H]1C(=O)OC[C@@H]1Cc1cncn1C [Pilocarpine nitrate] the inhibition at 5 µM (sheet LOPAC_screen_w_protease, primary screen with protease, 5 µM, mean of two replicates, read-out: mean) was -0.33%, the inhibition at 5 µM [25] was -0.127% and the inhibition at 5 µM [26] was -0.532%.

COC(=O)c1c(C)[nH]c(C)c1C(=O)c1ccccc1Cc1ccccc1 [FPL 64176] showed a mean (sheet LOPAC_screen_w_protease, primary screen with protease, 5 µM, mean of two replicates) of 0.1984, a Replicate_1 (sheet LOPAC_screen_w_protease, primary screen with protease, 5 µM, replicate 1) of 1.679 and a Replicate_2 (sheet LOPAC_screen_w_protease, primary screen with protease, 5 µM, replicate 2) of -1.282.

COc1cc([C@@H]2c3cc4c(cc3[C@H](O)[C@H]3COC(=O)[C@H]23)OCO4)cc(OC)c1OC [Podophyllotoxin] showed an inhibition at 5 µM (read-out: Replicate_1) of 3.42%, an inhibition at 5 µM (read-out: Replicate_2) of 4.17% and an inhibition at 5 µM (read-out: mean) of 3.8%.

With CC(C)[C@@H]1NC(=O)[C@H](CCCCN)NC(=O)[C@@H](Cc2c[nH]c3ccccc23)NC(=O)[C@H](Cc2ccc(O)cc2)NC(=O)[C@H](C)N(C)C(=O)[C@H](Cc2ccccc2)NC1=O [Seglitide] the inhibition at 5 µM [17] was 3.58%, the inhibition at 5 µM [18] was -0.291% and the “mean (LOPAC_screen_w_protease)” value [13] was 1.643.

Molecule CSc1ccc2c(c1)C(N1CCN(C)CC1)Cc1ccccc1S2 (centres unmarked) [Methiothepin mesylate] has an inhibition at 5 µM [4] of 4.09%, an inhibition at 5 µM [5] of 3.76% and an inhibition at 5 µM [6] of 4.42%.

For COc1ccccc1CNCCCCCCNCCCCCCCCNCCCCCCNCc1ccccc1OC.Cl.Cl.Cl.Cl [Methoctramine tetrahydrochloride], the mean [10] was 4.069, the Replicate_1 [11] was 5.6561 and the Replicate_2 [12] was 2.482.

In the case of Nn1nnc2ccccc21 [1-Aminobenzotriazole], the mean [14] is reported as 1.253, the Replicate_1 [15] is reported as 1.647 and the Replicate_2 [16] is reported as 0.8595.

Br.Cc1cccc(C2CN(C)CCc3c2cc(O)c(O)c3Cl)c1 (centres unmarked) [SKF 83959 hydrobromide] was tested, and the “mean (LOPAC screen with protease)” value [19] was 8.7281, the “Replicate_1 (LOPAC screen with protease)” value [20] was 9.112 and the “Replicate_2 (LOPAC screen with protease)” value [21] was 8.344.
